Patent publication US20200017495A1, “NOVEL HETEROCYCLIC COMPOUNDS AND THEIR USE IN PREVENTING OR TREATING BACTERIAL INFECTIONS” (priority 2017, published 2020)
Read-outs that look alike come from different tables or passages of the source.

Assays:
Experiment in all cases: MIC of compounds alone and combined with antibacterials, broth microdilution (CLSI)
Format in all cases: cell-based
[1] = system: Salmonella typhimurium (STY) isolates; conditions: Salmonella enterica, TYPHIMURIUM
Outline: (§1)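 Genotyped isolates; cpd ± antibacterial, DMSO spots; ca-MHB, 5.10^5 CFU/mL; 35° C, 16-20 h, air; visual MIC; ATB MIC per cpd concentration.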

[2] = system: Providencia stuartii (PST) isolates; conditions: Providencia stuartii, read-out: MIC
Outline: as §1

[3] = system: Citrobacter koseri (CKR) isolates; conditions: Citrobacter koseri
Outline: (§2)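 Broth microdilution in cation-adjusted Mueller-Hinton broth, inoculum 5.10^5 CFU/mL, 16-20 h at 35° C in ambient air, on genotyped isolates. Compound MIC, alone or with an antibacterial, taken visually as lowest concentration preventing growth; antibacterial MIC determined at each compound concentration.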

[4] = system: Escherichia coli (ECO) isolates; conditions: Escherichia coli
Outline: as §2

[5] = strain PST UFR94, genotype CTX-M-14
[6] = strain PST UFR95, genotype TEM-24
[7] = strain PST UFR235, genotype VEB-1
[8] = strain ECO 4133, genotype TEM-30, OXA-1, read-out: MIC
[9] = strain ECO 5302, genotype TEM-1, OXA-1, read-out: MIC
[10] = strain ECO 131119, genotype TEM-1, OXA-48, read-out: MIC
[11] = strain ECO RGN238, genotype OXA-1, read-out: MIC
[12] = strain ECO UFR86, genotype ompC-, ompF-, read-out: MIC
[13] = strain ECO UFR211, genotype TEM-24, read-out: MIC

C=CC1=C(C(=O)O)N2C(=O)[C@@H](NC(=O)/C(=N\O)c3csc(N)n3)[C@H]2SC1 [CDR, Cefdinir]
MIC [1]: 0.5 µg/mL
MIC [2, 5]: 64 µg/mL
MIC [2, 6]: 32 µg/mL
MIC [2, 7]: 256 µg/mL
MIC [3]: > 256 µg/mL
MIC [4, 8]: 0.5 µg/mL
MIC [4, 9]: 1 µg/mL
MIC [4, 10]: 256 µg/mL
MIC ([4]; strain ECO 180070, genotype TEM-1, CTX-M-15): > 256 µg/mL
MIC ([4]; strain ECO 190314, genotype CTX-M-1): > 256 µg/mL
MIC ([4]; strain ECO 190317, genotype TEM-1, SHV-12, CTX-M-15, OXA-1): > 256 µg/mL
MIC ([4]; strain ECO 190457, genotype CTX-M-15, OXA-1): > 256 µg/mL
MIC ([4]; strain ECO 190549, genotype CTX-M-1, read-out: MIC): 256 µg/mL
MIC ([4]; strain ECO 200159, genotype TEM-1, CTX-M-14, read-out: MIC): 256 µg/mL
MIC ([4]; strain ECO 200259, genotype CTX-M-14, read-out: MIC): 256 µg/mL
MIC ([4]; strain ECO 200344, genotype CTX-M-1): > 256 µg/mL
MIC ([4]; strain ECO 260096, genotype CTX-M-132): > 256 µg/mL
MIC ([4]; strain ECO 260304, genotype CTX-M-15, read-out: MIC): 256 µg/mL
MIC ([4]; strain ECO 260508, genotype TEM-1, CTX-M-15, OXA-1): > 256 µg/mL
MIC [4, 11]: 0.5 µg/mL
MIC ([4]; strain ECO UFR15, genotype TEM-1, OXA-48): > 256 µg/mL
MIC ([4]; strain ECO UFR16, genotype TEM-1, CTX-M-15, OXA-1, OXA-48): > 256 µg/mL
MIC ([4]; strain ECO UFR17, genotype TEM-1, CTX-M-15, CMY-2, OXA-1, OXA-181): > 256 µg/mL
MIC ([4]; strain ECO UFR18, genotype CTX-M-15, OXA-204): > 256 µg/mL
MIC ([4]; strain ECO UFR19, genotype CTX-M-15, CMY-2, OXA-1, OXA-204): > 256 µg/mL
MIC ([4]; strain ECO UFR20, genotype SHV-1, CTX-M-15, OXA-1, OXA-232): > 256 µg/mL
MIC ([4]; strain ECO UFR61O, genotype TEM-1, KPC-2): > 256 µg/mL
MIC ([4]; strain ECO UFR62, genotype TEM-1, CTX-M-9, KPC-2): > 256 µg/mL
MIC ([4]; strain ECO UFR74, genotype SHV-1, DHA-1): > 256 µg/mL
MIC [4, 12]: 2 µg/mL
MIC ([4]; strain ECO UFR174, genotype TEM-1, KPC-2, OXA-1): > 256 µg/mL
MIC ([4]; strain ECO UFR175, genotype TEM-1, KPC-2, OXA-9): > 256 µg/mL
MIC ([4]; strain ECO UFR176, genotype KPC-3, OXA-9*): > 256 µg/mL
MIC ([4]; strain ECO UFR184, genotype CTX-M-15, CMY-4, OXA-1, OXA-204): > 256 µg/mL
MIC ([4]; strain ECO UFR185, genotype OXA-48): > 256 µg/mL
MIC ([4]; strain ECO UFR186, genotype TEM-1, CTX-M-14, OXA-48): > 256 µg/mL
MIC ([4]; strain ECO UFR187, genotype CTX-M-15, OXA-48): > 256 µg/mL
MIC ([4]; strain ECO UFR189, genotype TEM-1, CTX-M-15, OXA-48): > 256 µg/mL
MIC ([4]; strain ECO UFR190, genotype CTX-M-24, OXA-48): > 256 µg/mL
MIC ([4]; strain ECO UFR191, genotype TEM-1, CTX-M-24, OXA-48): > 256 µg/mL
MIC ([4]; strain ECO UFR207, genotype CTX-M-15): > 256 µg/mL
MIC ([4]; strain ECO UFR208, genotype SHV-12): > 256 µg/mL
MIC ([4]; strain ECO UFR209, genotype TEM-1, CTX-M-15): > 256 µg/mL
MIC ([4]; strain ECO UFR210, genotype SHV-12): > 256 µg/mL
MIC [4, 13]: 32 µg/mL
MIC ([4]; strain ECO UFR212, genotype CMY-2): > 256 µg/mL
MIC ([4]; strain ECO UFR218, genotype TEM-1, SHV-1, CTX-M-15): > 256 µg/mL

COCC1=C(C(=O)O)N2C(=O)[C@@H](NC(=O)/C(=N\OC)c3csc(N)n3)[C@H]2SC1 [POD, Cefpodoxime]
MIC [1]: 4 µg/mL
MIC [2, 5]: 32 µg/mL
MIC [2, 6]: 16 µg/mL
MIC [2, 7]: 128 µg/mL
MIC ([3]; strain CKO ROU, genotype TEM-1, SHV-12, CTX-M-15, OXA-1, OXA-48, read-out: MIC): 4 µg/mL
MIC ([3]; strain CKO UFR150, genotype TEM-1, OXA-48, read-out: MIC): 16 µg/mL
MIC [4, 8]: 2 µg/mL
MIC [4, 9]: 4 µg/mL
MIC [4, 10]: 1 µg/mL
MIC ([4]; strain ECO 190317, genotype TEM-1, SHV-12, CTX-M-15, OXA-1, read-out: MIC): > 512 µg/mL
MIC [4, 11]: 2 µg/mL
MIC ([4]; strain ECO UFR15, genotype TEM-1, OXA-48, read-out: MIC): 2 µg/mL
MIC [4, 12]: 4 µg/mL
MIC [4, 13]: 32 µg/mL
